Substitutions are numbered along the chain they refer to. Where “and” joins values, the source holds several entries; their conditions need not be identical. Identical values can stand only once. Entries after “also recorded” stand apart in the source; their conditions may differ. Like-named read-outs stand apart in the source and are kept apart here.
How the values were obtained:
[1] = molecular target: T1, α1B ADR (Mesocricetus auratus, UniProt P18841); assay: Ligand binding on membranes of RAT-1 fibroblast cell lines expressing the α1B ADR; set-up: species or system hamster; settings: two clones
T1 construct: expressed in transfected cells; host or cells: RAT-1 fibroblasts (vector pZIP-NeoSV(X)1), focus-derived, G418-selected lines
T1 sequence (P18841 1-515): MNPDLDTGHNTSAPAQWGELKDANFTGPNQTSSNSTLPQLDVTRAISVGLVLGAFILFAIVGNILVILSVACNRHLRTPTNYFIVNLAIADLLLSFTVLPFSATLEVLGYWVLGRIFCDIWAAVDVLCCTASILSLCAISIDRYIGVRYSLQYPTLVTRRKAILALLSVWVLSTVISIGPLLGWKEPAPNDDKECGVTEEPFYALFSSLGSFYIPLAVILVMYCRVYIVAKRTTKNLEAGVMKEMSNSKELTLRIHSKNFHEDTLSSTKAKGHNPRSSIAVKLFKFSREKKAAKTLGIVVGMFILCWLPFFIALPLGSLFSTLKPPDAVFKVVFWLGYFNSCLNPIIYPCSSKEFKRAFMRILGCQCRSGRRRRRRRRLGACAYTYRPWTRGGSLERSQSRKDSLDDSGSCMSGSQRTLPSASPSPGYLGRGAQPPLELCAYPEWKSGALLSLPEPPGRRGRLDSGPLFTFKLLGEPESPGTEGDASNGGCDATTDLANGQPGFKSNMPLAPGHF
Method: (§1) In Table 3, RAT-1 fibroblast cell lines transfected with expression vector alone or derived from transformed foci (α1B ADR or α1B ADR mutant) were selected with G418 (300 μg/ml). Ligand binding was performed on membranes prepared from two clones of each in accordance with known techniques (S. Cotecchia et al., Life Sci. 37, 2389 (1986)). For saturation binding analysis, [^125 ] HEAT concentrations ranged from 10 to 500 pM, nonspecific binding was determined using 1 μM prazosin; in competition experiments, the radioligand concentration was 100 pM. Ligand binding parameters were determined using computerized iterative nonlinear regression analysis (P. Munson, Methods in Enzymol. 92, 5432 (1983)). For assessment of receptor coupling to PI hydrolysis, cells were plated in 30 mm dishes, and labeled overnight with 3 μCi/ml of myo-[2-^3 II(N)]-inositol (1Ci=37 GBq; NEN Research Products) in DMEM containing 3.3% FBS in accordance with known techniques (S. Cotecchia et al., Proc. Natl. Acad. Sci. USA 87, 2896 (1990)). After 40 minute stimulation of cells with 10 μM norepinephrine (NE), inositol phosphates were extracted, and separated on AG 1-X8 anion exchange columns (BioRad Labs) in accordance with known techniques (S. Cotecchia et al., Proc. Natl. Acad. Sci. USA 87, 2896 (1990)). Total inositol phosphates were eluted with 1M ammonium formate/0.1M formic acid. Rmax indicates the percentage increase of total labeled inositol phosphates over basal levels following NE stimulation.

[2] = molecular target: T2, α1B ADR mutant (Mesocricetus auratus, UniProt P18841, A293L/K290H/R288K); assay: Ligand binding on membranes of RAT-1 fibroblast cell lines expressing the α1B ADR mutant; set-up: species or system hamster; settings: two clones
T2 construct: expressed in transfected cells; host or cells: RAT-1 fibroblasts (vector pZIP-NeoSV(X)1), focus-derived, G418-selected lines
T2 sequence (P18841 1-515 R288K/K290H/A293L): T1 sequence (P18841 1-515) with R288K, K290H, A293L
Method: as §1

[3] = test system: α1B -ADR
Method: To quantitate receptor-mediated effects on mitogenesis, basal and NE-stimulated growth rates were assessed on cell lines expressing the wild type or mutant α1B -ADRs.

[4] = test system: RAT-1 fibroblasts transfected with α1B -ADR c-DNA; assay: Focus formation in RAT-1 fibroblasts transfected with α1B-ADR c-DNA; type: cell-based; settings: focus-derived RAT-1 cell lines; data not shown
Method: Transfection was carried out as follows: RAT-1 fibroblasts were seeded at a density of 2×10^5 cells in Dulbecco's modified Eagle's medium (DMEM) (Gibco) containing 5% fetal bovine serum (FBS) in 100 mm dishes. […] After 16 hours, the DNA precipitate was removed, the cells washed and grown for 24 hours in complete medium. Cells were split 1:5, allowed to attach overnight and then cultured in DMEM with 5% FBS alone, supplemented with 10 μM norepinephrine (NE) or G418 (300 μg/ml). Dishes were supplemented with NE daily, and fed every 3 days with fresh medium.

[5] = test system: RAT-1 fibroblast cell line derived from a single transformed focus expressing the α1B -ADR; assay: Morphology of focus-derived RAT-1 fibroblast cell line expressing the α1B-ADR; type: cell-based; settings: 10 μM NE and 1 μM prazosin, 36 hours
[6] = saturation binding 10 to 500 pM, nonspecific binding with 1 μM prazosin, read-out: [125I] HEAT Kd
[7] = serum free medium, data not shown

O=C1c2ccccc2CCC1CNCCc1ccc(O)c([125I])c1 (stereo not shown) [[^125 I] HEAT, 2{b-(4-hydroxy-3-[^125 I]iodophenyl)ethylaminomethyl}-tetralone]
Kd [1, 6]: 0.0441 nM and 0.0383 nM
[125I] HEAT Bmax ([1]; saturation binding): 5.1 pmol/mg and 2.7 pmol/mg
Kd [2, 6]: 0.0379 nM and 0.0463 nM
[125I] HEAT Bmax ([2]; saturation binding): 2.2 pmol/mg and 2.6 pmol/mg

c1ccc2c(c1)OCC(C1=NCCN1)O2 (stereo not shown) [idazoxan]
blockade of NE-induced increase in DNA synthetic activity [3, 7]: not

COc1cc2nc(N3CCN(C(=O)c4ccco4)CC3)nc(N)c2cc1OC [prazosin]
inhibition of agonist-dependent focus formation by concurrent antagonist [4]: could be inhibited
blockade of NE-induced increase in DNA synthetic activity [3]: could be blocked
effect of concurrent antagonist on agonist-induced transformation (morphology) [5]: blocked agonist-induced transformation; also recorded: reverted the cells to the untransformed phenotype

CC(C)NCC(O)COc1cccc2ccccc12 (stereo not shown) [propranolol]
blockade of NE-induced increase in DNA synthetic activity [3, 7]: not

COC(=O)[C@@H]1[C@H]2C[C@H]3c4[nH]c5ccccc5c4CCN3C[C@@H]2CC[C@@H]1O [yohimbine]
blockade of NE-induced increase in DNA synthetic activity [3]: not

Reference: patent US5573908A, “Adrenergic receptor as a proto-oncogene” (Duke University, priority 1993, dated 1996)
